From ChEMBL document CHEMBL2346515, “Discovery of 4-alkylamino-7-aryl-3-cyanoquinoline LRRK2 kinase inhibitors” (Bioorg Med Chem Lett, 2013)

How the values were obtained:
[1] = target: Tyrosine-protein kinase SYK (Homo sapiens) (UniProt P43405); assay: Inhibition of SYK (unknown origin) at 1 uM by single point assay
[2] = target: T1, Serine/threonine-protein kinase 3 (Homo sapiens) (UniProt Q13188); assay: Inhibition of STK3 (unknown origin) at 1 uM by single point assay
T1 sequence (whole entry): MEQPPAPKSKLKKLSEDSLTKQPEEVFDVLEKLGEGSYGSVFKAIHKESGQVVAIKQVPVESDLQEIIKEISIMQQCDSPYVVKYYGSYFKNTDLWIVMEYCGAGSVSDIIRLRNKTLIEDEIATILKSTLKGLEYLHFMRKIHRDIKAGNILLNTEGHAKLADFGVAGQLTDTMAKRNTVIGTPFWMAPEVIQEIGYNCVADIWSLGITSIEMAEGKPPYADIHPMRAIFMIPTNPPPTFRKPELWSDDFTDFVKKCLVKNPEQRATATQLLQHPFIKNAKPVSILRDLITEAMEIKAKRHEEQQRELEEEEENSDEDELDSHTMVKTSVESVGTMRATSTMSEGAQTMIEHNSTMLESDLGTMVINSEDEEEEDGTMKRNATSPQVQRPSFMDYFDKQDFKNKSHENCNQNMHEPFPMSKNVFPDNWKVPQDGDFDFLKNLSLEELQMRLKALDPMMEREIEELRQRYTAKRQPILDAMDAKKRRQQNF

[3] = target: Rho-associated protein kinase 2 (Homo sapiens) (UniProt O75116); assay: Inhibition of ROCK2 (unknown origin) at 1 uM by single point assay
[4] = target: Receptor-interacting serine/threonine-protein kinase 2 (Homo sapiens) (UniProt O43353); assay: Inhibition of RIPK2 (unknown origin) at 1 uM by single point assay
[5] = target: RAF proto-oncogene serine/threonine-protein kinase (Homo sapiens) (UniProt P04049); assay: Inhibition of RAF1 (unknown origin) at 1 uM by single point assay
[6] = target: Protein kinase C beta type (Homo sapiens) (UniProt P05771); assay: Inhibition of PKCbeta1 (unknown origin) at 1 uM by single point assay
[7] = target: Serine/threonine-protein kinase PLK1 (Homo sapiens) (UniProt P53350); assay: Inhibition of PLK1 (unknown origin) at 1 uM by single point assay
[8] = target: Serine/threonine-protein kinase PLK2 (Homo sapiens) (UniProt Q9NYY3); assay: Inhibition of PLK2 (unknown origin) at 1 uM by single point assay
[9] = target: PI3-kinase p110-alpha/p85-alpha (Homo sapiens) (UniProt P27986+P42336); assay: Inhibition of PIK3CA/PIK3R1 (unknown origin) at 1 uM by single point assay; type: protein-complex assay
[10] = target: Serine/threonine-protein kinase PAK 4 (Homo sapiens) (UniProt O96013); assay: Inhibition of PAK4 (unknown origin) at 1 uM by single point assay
[11] = target: Mitogen-activated protein kinase 1 (Homo sapiens) (UniProt P28482); assay: Inhibition of MAPK1 (unknown origin) at 1 uM by single point assay
[12] = target: T2, Mitogen-activated protein kinase kinase kinase 7 (Homo sapiens) (UniProt O43318); assay: Inhibition of MAP3K7 (unknown origin) at 1 uM by single point assay
T2 sequence (whole entry): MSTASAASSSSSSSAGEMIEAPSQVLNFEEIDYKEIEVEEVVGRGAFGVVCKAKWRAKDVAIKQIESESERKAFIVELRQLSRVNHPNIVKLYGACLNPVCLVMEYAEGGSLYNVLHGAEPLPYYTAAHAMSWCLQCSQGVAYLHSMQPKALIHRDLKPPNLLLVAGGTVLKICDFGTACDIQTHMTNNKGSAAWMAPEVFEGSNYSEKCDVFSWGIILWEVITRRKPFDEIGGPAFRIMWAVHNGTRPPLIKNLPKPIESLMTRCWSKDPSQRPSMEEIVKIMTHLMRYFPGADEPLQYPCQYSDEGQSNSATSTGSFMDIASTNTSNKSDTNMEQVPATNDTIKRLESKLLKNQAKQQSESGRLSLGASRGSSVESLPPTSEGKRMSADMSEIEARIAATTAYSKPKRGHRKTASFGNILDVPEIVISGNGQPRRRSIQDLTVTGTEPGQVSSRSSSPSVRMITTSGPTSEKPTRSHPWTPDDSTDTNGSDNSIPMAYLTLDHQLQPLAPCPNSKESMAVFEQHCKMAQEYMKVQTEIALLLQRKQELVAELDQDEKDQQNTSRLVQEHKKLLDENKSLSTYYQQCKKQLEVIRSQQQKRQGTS

[13] = target: Tyrosine-protein kinase Lck (Homo sapiens) (UniProt P06239); assay: Inhibition of LCK (unknown origin) at 1 uM by single point assay
[14] = target: Insulin receptor (Homo sapiens) (UniProt P06213); assay: Inhibition of INSR (unknown origin) at 1 uM by single point assay
[15] = target: Glycogen synthase kinase-3 beta (Homo sapiens) (UniProt P49841); assay: Inhibition of GSK3beta (unknown origin) at 1 uM by single point assay
[16] = target: Receptor tyrosine-protein kinase erbB-4 (Homo sapiens) (UniProt Q15303); assay: Inhibition of ErbB4 (unknown origin) at 1 uM by single point assay
[17] = target: Dual specificity tyrosine-phosphorylation-regulated kinase 1B (Homo sapiens) (UniProt Q9Y463); assay: Inhibition of DYRK1B (unknown origin) at 1 uM by single point assay
[18] = target: Macrophage colony-stimulating factor 1 receptor (Homo sapiens) (UniProt P07333); assay: Inhibition of CSF1R (unknown origin) at 1 uM by single point assay
[19] = target: RAC-alpha serine/threonine-protein kinase (Homo sapiens) (UniProt P31749); assay: Inhibition of AKT1 (unknown origin) at 1 uM by single point assay
[20] = target: T3, Aurora kinase A (Homo sapiens) (UniProt O14965); assay: Inhibition of AURKA (unknown origin) at 1 uM by single point assay
T3 sequence (whole entry): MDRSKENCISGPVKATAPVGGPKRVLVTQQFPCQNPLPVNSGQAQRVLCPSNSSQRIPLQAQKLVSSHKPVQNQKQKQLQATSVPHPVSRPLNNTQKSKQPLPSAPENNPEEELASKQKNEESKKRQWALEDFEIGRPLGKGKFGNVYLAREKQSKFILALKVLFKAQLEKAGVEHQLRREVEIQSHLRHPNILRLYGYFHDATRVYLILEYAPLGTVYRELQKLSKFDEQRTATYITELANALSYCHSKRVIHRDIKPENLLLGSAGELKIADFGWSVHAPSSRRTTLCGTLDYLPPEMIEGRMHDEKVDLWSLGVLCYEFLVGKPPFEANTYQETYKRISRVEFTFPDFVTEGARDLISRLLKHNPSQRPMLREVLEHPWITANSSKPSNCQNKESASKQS

[21] = target: Calcium/calmodulin-dependent protein kinase type II subunit alpha (Homo sapiens) (UniProt Q9UQM7); assay: Inhibition of CAMK2alpha (unknown origin) at 1 uM by single point assay

Sequence of Glycogen synthase kinase-3 beta (Homo sapiens) (P49841 whole entry, looked up): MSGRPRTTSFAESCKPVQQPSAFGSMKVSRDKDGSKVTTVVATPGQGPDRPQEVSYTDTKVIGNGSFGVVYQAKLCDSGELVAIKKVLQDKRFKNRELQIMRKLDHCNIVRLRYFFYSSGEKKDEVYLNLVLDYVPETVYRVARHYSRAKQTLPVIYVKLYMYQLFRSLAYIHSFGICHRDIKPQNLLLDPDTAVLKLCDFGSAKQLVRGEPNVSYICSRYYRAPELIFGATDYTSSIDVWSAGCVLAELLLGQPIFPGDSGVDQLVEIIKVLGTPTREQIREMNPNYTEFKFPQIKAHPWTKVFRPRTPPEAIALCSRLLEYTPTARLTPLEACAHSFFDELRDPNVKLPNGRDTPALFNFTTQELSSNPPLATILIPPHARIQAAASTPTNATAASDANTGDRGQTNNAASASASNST
Sequence of Receptor tyrosine-protein kinase erbB-4 (Homo sapiens) (Q15303 whole entry): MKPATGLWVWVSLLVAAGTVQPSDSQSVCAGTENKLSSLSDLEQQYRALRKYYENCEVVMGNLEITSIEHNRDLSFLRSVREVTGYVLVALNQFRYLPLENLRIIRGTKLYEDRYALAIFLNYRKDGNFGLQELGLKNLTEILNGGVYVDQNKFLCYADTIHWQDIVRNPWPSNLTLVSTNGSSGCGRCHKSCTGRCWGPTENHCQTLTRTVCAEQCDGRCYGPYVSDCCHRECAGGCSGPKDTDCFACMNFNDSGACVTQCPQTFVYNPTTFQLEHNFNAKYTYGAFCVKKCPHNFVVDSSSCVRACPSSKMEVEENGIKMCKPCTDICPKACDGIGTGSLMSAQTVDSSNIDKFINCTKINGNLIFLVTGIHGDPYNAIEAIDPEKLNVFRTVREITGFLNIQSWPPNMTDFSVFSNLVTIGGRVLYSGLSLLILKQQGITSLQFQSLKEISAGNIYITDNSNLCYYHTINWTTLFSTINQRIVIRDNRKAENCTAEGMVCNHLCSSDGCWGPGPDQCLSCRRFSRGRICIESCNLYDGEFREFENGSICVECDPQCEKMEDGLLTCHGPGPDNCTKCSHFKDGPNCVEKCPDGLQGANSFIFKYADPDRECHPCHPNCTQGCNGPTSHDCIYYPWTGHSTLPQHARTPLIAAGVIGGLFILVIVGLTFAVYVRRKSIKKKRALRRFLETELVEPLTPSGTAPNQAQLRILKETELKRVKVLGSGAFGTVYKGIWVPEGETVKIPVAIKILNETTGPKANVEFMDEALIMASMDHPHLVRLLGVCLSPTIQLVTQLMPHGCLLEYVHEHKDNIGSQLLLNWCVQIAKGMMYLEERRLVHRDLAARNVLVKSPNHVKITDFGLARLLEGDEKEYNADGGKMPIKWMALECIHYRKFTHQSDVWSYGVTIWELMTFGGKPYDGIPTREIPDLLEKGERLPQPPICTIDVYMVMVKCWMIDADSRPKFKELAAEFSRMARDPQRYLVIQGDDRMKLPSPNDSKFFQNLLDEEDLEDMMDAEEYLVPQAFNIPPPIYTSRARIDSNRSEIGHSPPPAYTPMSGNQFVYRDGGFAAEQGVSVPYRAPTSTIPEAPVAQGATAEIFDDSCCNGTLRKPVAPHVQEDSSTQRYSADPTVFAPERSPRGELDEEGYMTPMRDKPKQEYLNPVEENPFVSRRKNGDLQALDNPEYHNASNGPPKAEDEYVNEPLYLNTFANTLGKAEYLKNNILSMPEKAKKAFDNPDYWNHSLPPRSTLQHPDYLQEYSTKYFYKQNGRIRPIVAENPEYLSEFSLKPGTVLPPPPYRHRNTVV
Sequence of Mitogen-activated protein kinase 1 (Homo sapiens) (P28482 whole entry): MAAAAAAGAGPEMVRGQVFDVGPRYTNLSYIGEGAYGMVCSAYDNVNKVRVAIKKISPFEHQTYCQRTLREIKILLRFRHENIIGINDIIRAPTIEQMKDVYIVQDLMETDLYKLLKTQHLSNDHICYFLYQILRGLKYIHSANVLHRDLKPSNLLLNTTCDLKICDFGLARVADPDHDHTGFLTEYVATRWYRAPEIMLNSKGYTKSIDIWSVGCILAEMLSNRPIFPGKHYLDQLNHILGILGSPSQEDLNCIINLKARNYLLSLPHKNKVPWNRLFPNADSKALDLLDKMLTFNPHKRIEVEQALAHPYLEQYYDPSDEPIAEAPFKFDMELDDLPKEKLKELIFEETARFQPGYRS
Sequence of Serine/threonine-protein kinase PLK2 (Homo sapiens) (Q9NYY3 whole entry, looked up): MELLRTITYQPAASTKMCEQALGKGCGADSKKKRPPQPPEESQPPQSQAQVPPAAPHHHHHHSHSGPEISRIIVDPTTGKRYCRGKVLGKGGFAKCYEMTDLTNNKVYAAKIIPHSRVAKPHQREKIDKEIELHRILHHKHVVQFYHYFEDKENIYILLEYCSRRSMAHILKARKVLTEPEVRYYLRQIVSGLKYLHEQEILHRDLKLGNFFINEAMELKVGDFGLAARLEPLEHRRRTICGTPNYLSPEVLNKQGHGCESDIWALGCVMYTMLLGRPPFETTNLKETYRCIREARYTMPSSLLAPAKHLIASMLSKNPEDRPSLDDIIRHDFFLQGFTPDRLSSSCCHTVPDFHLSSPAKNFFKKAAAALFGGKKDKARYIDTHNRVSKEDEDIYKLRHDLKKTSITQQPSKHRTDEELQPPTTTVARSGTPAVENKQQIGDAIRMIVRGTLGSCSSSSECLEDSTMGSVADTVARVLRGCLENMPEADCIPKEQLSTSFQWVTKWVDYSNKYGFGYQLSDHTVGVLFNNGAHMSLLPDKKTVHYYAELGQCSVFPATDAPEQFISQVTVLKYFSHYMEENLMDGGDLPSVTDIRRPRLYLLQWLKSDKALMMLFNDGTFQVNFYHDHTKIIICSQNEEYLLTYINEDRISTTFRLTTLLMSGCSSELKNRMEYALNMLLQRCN
Sequence of RAF proto-oncogene serine/threonine-protein kinase (Homo sapiens) (P04049 whole entry): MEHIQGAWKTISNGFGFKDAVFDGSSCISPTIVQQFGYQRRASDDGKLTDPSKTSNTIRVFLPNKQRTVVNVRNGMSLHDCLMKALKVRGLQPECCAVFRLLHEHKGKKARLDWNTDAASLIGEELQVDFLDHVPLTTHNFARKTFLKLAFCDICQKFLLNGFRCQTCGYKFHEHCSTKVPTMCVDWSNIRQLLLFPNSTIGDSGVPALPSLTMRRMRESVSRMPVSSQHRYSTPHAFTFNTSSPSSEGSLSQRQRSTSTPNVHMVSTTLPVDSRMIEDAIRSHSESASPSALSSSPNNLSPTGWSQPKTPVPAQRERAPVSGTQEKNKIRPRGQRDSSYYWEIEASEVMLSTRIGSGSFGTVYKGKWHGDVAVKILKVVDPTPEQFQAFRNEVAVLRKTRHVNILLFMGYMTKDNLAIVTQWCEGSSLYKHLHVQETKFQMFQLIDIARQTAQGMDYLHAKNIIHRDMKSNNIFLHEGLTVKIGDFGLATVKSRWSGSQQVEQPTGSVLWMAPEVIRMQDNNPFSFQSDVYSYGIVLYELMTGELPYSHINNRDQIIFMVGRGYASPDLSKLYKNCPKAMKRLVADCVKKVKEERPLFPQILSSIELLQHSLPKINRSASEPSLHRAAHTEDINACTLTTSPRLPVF
Sequence of Protein kinase C beta type (Homo sapiens) (P05771 2-671 limits assumed): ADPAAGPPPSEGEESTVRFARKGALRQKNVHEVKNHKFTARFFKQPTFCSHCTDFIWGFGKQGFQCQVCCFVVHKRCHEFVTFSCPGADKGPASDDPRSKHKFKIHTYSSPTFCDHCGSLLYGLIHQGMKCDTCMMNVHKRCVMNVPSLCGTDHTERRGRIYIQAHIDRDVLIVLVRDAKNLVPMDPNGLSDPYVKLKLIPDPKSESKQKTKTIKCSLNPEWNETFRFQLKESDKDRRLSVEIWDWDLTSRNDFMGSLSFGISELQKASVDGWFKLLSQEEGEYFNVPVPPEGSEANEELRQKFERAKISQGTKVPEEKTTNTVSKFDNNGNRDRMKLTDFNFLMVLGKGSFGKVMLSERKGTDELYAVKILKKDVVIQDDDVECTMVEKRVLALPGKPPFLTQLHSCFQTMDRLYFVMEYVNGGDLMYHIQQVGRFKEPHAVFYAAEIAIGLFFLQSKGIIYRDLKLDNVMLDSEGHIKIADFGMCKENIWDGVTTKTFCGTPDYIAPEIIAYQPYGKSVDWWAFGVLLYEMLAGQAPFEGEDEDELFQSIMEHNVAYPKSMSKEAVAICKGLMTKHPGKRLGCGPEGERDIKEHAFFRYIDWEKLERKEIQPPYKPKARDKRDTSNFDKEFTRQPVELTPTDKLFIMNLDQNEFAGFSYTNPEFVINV
Sequence of Receptor-interacting serine/threonine-protein kinase 2 (Homo sapiens) (O43353 whole entry): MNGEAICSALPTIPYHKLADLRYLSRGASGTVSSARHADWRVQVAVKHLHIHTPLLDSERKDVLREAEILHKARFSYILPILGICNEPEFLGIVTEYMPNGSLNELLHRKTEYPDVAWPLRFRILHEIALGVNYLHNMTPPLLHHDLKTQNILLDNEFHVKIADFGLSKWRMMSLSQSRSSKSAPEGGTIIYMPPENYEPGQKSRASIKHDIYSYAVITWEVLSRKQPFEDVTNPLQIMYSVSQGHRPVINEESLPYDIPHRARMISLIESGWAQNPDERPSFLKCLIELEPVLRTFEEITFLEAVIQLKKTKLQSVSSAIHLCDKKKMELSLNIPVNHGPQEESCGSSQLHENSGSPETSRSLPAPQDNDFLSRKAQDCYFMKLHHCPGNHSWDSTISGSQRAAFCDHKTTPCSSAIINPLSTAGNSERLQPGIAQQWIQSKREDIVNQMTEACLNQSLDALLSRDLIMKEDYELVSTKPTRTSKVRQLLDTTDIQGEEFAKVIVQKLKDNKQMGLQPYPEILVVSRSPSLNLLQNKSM

SMILES: CC(C)Nc1c(C#N)cnc2cc(-c3cnn(C)c3)ccc12
- inhibition [1]: 92%
- inhibition [2]: 15%
- inhibition [3]: 14%
- inhibition [4]: 77%
- inhibition [5]: 12%
- inhibition [6]: -7%
- inhibition [7]: 24%
- inhibition [8]: 89%
- inhibition [9]: 22%
- inhibition [10]: 41%
- inhibition [11]: -2%
- inhibition [12]: 51%
- inhibition [13]: 31%
- inhibition [14]: 1%
- inhibition [15]: 6%
- inhibition [16]: 5%
- inhibition [17]: 49%
- inhibition [18]: 67%
- inhibition [19]: 0%
- inhibition [20]: 89%
- inhibition [21]: 27%

SMILES: CC(C)Nc1c(C#N)cnc2cc(-c3ccc(S(C)(=O)=O)cc3)ccc12
- inhibition [1]: 80%
- inhibition [2]: 29%
- inhibition [3]: 12%
- inhibition [4]: 17%
- inhibition [5]: 3%
- inhibition [6]: 19%
- inhibition [7]: 20%
- inhibition [8]: 73%
- inhibition [9]: -2%
- inhibition [10]: 15%
- inhibition [11]: 10%
- inhibition [12]: 7%
- inhibition [13]: 26%
- inhibition [14]: 6%
- inhibition [15]: 28%
- inhibition [16]: 19%
- inhibition [17]: 49%
- inhibition [18]: 60%
- inhibition [19]: 10%
- inhibition [20]: 71%
- inhibition [21]: 25%
